{"source": "patent US7943796B2", "about": "“Lubricating oil additive and lubricating oil composition containing same” (Chevron Oronise Company LLC, priority 2008, dated 2011)", "origin": "cited, not measured here", "tested_on": "estrogen-inducible strain of yeast", "conditions": "among alkylphenols, compared with 17β-estradiol", "data": [{"smiles": "CC(C)(C)CC(C)(C)c1ccc(O)cc1", "note": "[4-tert-octylphenol, 4-(1,1,3,3-Tetramethyl-butyl)-phenol]", "values": [{"measurement": "estrogenic activity", "result": "highest activity"}]}]}
